# The NIST ThermoML archive (doi:10.1021/acs.jced.5b00256)
# Numbers after ± are expanded uncertainties.
# Assays:
# [1] = relative permittivity at various frequencies (dimensionless); xn = mol fraction of the nth substance listed; settings: 100 kPa, Liquid, Frequency=2 MHz, Parallel plate capacitor
# [2] = refractive index (Na D-line) (dimensionless); xn = mol fraction of the nth substance listed; settings: 100 kPa, Liquid, Standard Abbe refractometry
compound,measurement,setting,value
COc1cccc(Br)c1 [1-bromo-3-methoxybenzene] + CCCO,relative permittivity,"[1]; 303.15 K, x2 = 0",7.01 ± 0.6
same,relative permittivity,"[1]; 303.15 K, x2 = 0.107",7.18 ± 0.6
same,relative permittivity,"[1]; 303.15 K, x2 = 0.206",7.55 ± 0.6
same,relative permittivity,"[1]; 303.15 K, x2 = 0.296",8.05 ± 0.6
same,relative permittivity,"[1]; 303.15 K, x2 = 0.38",8.67 ± 0.6
same,relative permittivity,"[1]; 303.15 K, x2 = 0.457",9.46 ± 0.6
same,relative permittivity,"[1]; 303.15 K, x2 = 0.529",10.27 ± 0.6
same,relative permittivity,"[1]; 303.15 K, x2 = 0.596",11.08 ± 0.6
same,relative permittivity,"[1]; 303.15 K, x2 = 0.658",12.04 ± 0.6
same,relative permittivity,"[1]; 303.15 K, x2 = 0.716",12.93 ± 0.6
same,relative permittivity,"[1]; 303.15 K, x2 = 0.771",13.98 ± 0.6
same,relative permittivity,"[1]; 303.15 K, x2 = 0.822",15.14 ± 0.6
same,relative permittivity,"[1]; 303.15 K, x2 = 0.871",16.23 ± 0.6
same,relative permittivity,"[1]; 303.15 K, x2 = 0.916",17.33 ± 0.6
same,relative permittivity,"[1]; 303.15 K, x2 = 0.959",18.58 ± 0.6
same,relative permittivity,"[1]; 313.15 K, x2 = 0",6.85 ± 0.6
same,relative permittivity,"[1]; 313.15 K, x2 = 0.107",7.03 ± 0.6
same,relative permittivity,"[1]; 313.15 K, x2 = 0.206",7.39 ± 0.6
same,relative permittivity,"[1]; 313.15 K, x2 = 0.296",7.83 ± 0.6
same,relative permittivity,"[1]; 313.15 K, x2 = 0.38",8.39 ± 0.6
same,relative permittivity,"[1]; 313.15 K, x2 = 0.457",9.11 ± 0.6
same,relative permittivity,"[1]; 313.15 K, x2 = 0.529",9.87 ± 0.6
same,relative permittivity,"[1]; 313.15 K, x2 = 0.596",10.61 ± 0.6
same,relative permittivity,"[1]; 313.15 K, x2 = 0.658",11.56 ± 0.6
same,relative permittivity,"[1]; 313.15 K, x2 = 0.716",12.39 ± 0.6
same,relative permittivity,"[1]; 313.15 K, x2 = 0.771",13.42 ± 0.6
same,relative permittivity,"[1]; 313.15 K, x2 = 0.822",14.52 ± 0.6
same,relative permittivity,"[1]; 313.15 K, x2 = 0.871",15.6 ± 0.6
same,relative permittivity,"[1]; 313.15 K, x2 = 0.916",16.62 ± 0.6
same,relative permittivity,"[1]; 313.15 K, x2 = 0.959",17.66 ± 0.6
same,relative permittivity,"[1]; 323.15 K, x2 = 0",6.74 ± 0.6
same,relative permittivity,"[1]; 323.15 K, x2 = 0.107",6.89 ± 0.6
same,relative permittivity,"[1]; 323.15 K, x2 = 0.206",7.15 ± 0.6
same,relative permittivity,"[1]; 323.15 K, x2 = 0.296",7.55 ± 0.6
same,relative permittivity,"[1]; 323.15 K, x2 = 0.38",8.08 ± 0.6
same,relative permittivity,"[1]; 323.15 K, x2 = 0.457",8.68 ± 0.6
same,relative permittivity,"[1]; 323.15 K, x2 = 0.529",9.4 ± 0.6
same,relative permittivity,"[1]; 323.15 K, x2 = 0.596",10.11 ± 0.6
same,relative permittivity,"[1]; 323.15 K, x2 = 0.658",10.94 ± 0.6
same,relative permittivity,"[1]; 323.15 K, x2 = 0.716",11.71 ± 0.6
same,relative permittivity,"[1]; 323.15 K, x2 = 0.771",12.88 ± 0.6
same,relative permittivity,"[1]; 323.15 K, x2 = 0.822",13.63 ± 0.6
same,relative permittivity,"[1]; 323.15 K, x2 = 0.871",14.65 ± 0.6
same,relative permittivity,"[1]; 323.15 K, x2 = 0.916",15.64 ± 0.6
same,relative permittivity,"[1]; 323.15 K, x2 = 0.959",16.7 ± 0.6
same,relative permittivity,"[1]; 333.15 K, x2 = 0",6.6 ± 0.6
same,relative permittivity,"[1]; 333.15 K, x2 = 0.107",6.7 ± 0.6
same,relative permittivity,"[1]; 333.15 K, x2 = 0.206",6.95 ± 0.6
same,relative permittivity,"[1]; 333.15 K, x2 = 0.296",7.23 ± 0.6
same,relative permittivity,"[1]; 333.15 K, x2 = 0.38",7.65 ± 0.6
same,relative permittivity,"[1]; 333.15 K, x2 = 0.457",8.2 ± 0.6
same,relative permittivity,"[1]; 333.15 K, x2 = 0.529",8.74 ± 0.6
same,relative permittivity,"[1]; 333.15 K, x2 = 0.596",9.38 ± 0.6
same,relative permittivity,"[1]; 333.15 K, x2 = 0.658",10.15 ± 0.6
same,relative permittivity,"[1]; 333.15 K, x2 = 0.716",10.89 ± 0.6
same,relative permittivity,"[1]; 333.15 K, x2 = 0.771",11.8 ± 0.6
same,relative permittivity,"[1]; 333.15 K, x2 = 0.822",12.43 ± 0.6
same,relative permittivity,"[1]; 333.15 K, x2 = 0.871",13.33 ± 0.6
same,relative permittivity,"[1]; 333.15 K, x2 = 0.916",14.3 ± 0.6
same,relative permittivity,"[1]; 333.15 K, x2 = 0.959",15.22 ± 0.6
same,refractive index,"[2]; 303.15 K, x2 = 0",1.56 ± 0.002
same,refractive index,"[2]; 303.15 K, x2 = 0.107",1.555 ± 0.002
same,refractive index,"[2]; 303.15 K, x2 = 0.206",1.544 ± 0.002
same,refractive index,"[2]; 303.15 K, x2 = 0.296",1.53 ± 0.002
same,refractive index,"[2]; 303.15 K, x2 = 0.38",1.517 ± 0.002
same,refractive index,"[2]; 303.15 K, x2 = 0.457",1.504 ± 0.002
same,refractive index,"[2]; 303.15 K, x2 = 0.529",1.493 ± 0.002
same,refractive index,"[2]; 303.15 K, x2 = 0.596",1.484 ± 0.002
same,refractive index,"[2]; 303.15 K, x2 = 0.658",1.473 ± 0.002
same,refractive index,"[2]; 303.15 K, x2 = 0.716",1.461 ± 0.002
same,refractive index,"[2]; 303.15 K, x2 = 0.771",1.447 ± 0.002
same,refractive index,"[2]; 303.15 K, x2 = 0.822",1.435 ± 0.002
same,refractive index,"[2]; 303.15 K, x2 = 0.871",1.421 ± 0.002
same,refractive index,"[2]; 303.15 K, x2 = 0.916",1.41 ± 0.002
same,refractive index,"[2]; 303.15 K, x2 = 0.959",1.396 ± 0.002
same,refractive index,"[2]; 313.15 K, x2 = 0",1.558 ± 0.002
same,refractive index,"[2]; 313.15 K, x2 = 0.107",1.552 ± 0.002
same,refractive index,"[2]; 313.15 K, x2 = 0.206",1.54 ± 0.002
same,refractive index,"[2]; 313.15 K, x2 = 0.296",1.528 ± 0.002
same,refractive index,"[2]; 313.15 K, x2 = 0.38",1.515 ± 0.002
same,refractive index,"[2]; 313.15 K, x2 = 0.457",1.501 ± 0.002
same,refractive index,"[2]; 313.15 K, x2 = 0.529",1.489 ± 0.002
same,refractive index,"[2]; 313.15 K, x2 = 0.596",1.482 ± 0.002
same,refractive index,"[2]; 313.15 K, x2 = 0.658",1.468 ± 0.002
same,refractive index,"[2]; 313.15 K, x2 = 0.716",1.458 ± 0.002
same,refractive index,"[2]; 313.15 K, x2 = 0.771",1.444 ± 0.002
same,refractive index,"[2]; 313.15 K, x2 = 0.822",1.429 ± 0.002
same,refractive index,"[2]; 313.15 K, x2 = 0.871",1.418 ± 0.002
same,refractive index,"[2]; 313.15 K, x2 = 0.916",1.405 ± 0.002
same,refractive index,"[2]; 313.15 K, x2 = 0.959",1.392 ± 0.002
same,refractive index,"[2]; 323.15 K, x2 = 0",1.553 ± 0.002
same,refractive index,"[2]; 323.15 K, x2 = 0.107",1.548 ± 0.002
same,refractive index,"[2]; 323.15 K, x2 = 0.206",1.535 ± 0.002
same,refractive index,"[2]; 323.15 K, x2 = 0.296",1.523 ± 0.002
same,refractive index,"[2]; 323.15 K, x2 = 0.38",1.512 ± 0.002
same,refractive index,"[2]; 323.15 K, x2 = 0.457",1.5 ± 0.002
same,refractive index,"[2]; 323.15 K, x2 = 0.529",1.488 ± 0.002
same,refractive index,"[2]; 323.15 K, x2 = 0.596",1.477 ± 0.002
same,refractive index,"[2]; 323.15 K, x2 = 0.658",1.464 ± 0.002
same,refractive index,"[2]; 323.15 K, x2 = 0.716",1.449 ± 0.002
same,refractive index,"[2]; 323.15 K, x2 = 0.771",1.437 ± 0.002
same,refractive index,"[2]; 323.15 K, x2 = 0.822",1.425 ± 0.002
same,refractive index,"[2]; 323.15 K, x2 = 0.871",1.413 ± 0.002
same,refractive index,"[2]; 323.15 K, x2 = 0.916",1.401 ± 0.002
same,refractive index,"[2]; 323.15 K, x2 = 0.959",1.388 ± 0.002
same,refractive index,"[2]; 333.15 K, x2 = 0",1.55 ± 0.002
same,refractive index,"[2]; 333.15 K, x2 = 0.107",1.546 ± 0.002
same,refractive index,"[2]; 333.15 K, x2 = 0.206",1.532 ± 0.002
same,refractive index,"[2]; 333.15 K, x2 = 0.296",1.519 ± 0.002
same,refractive index,"[2]; 333.15 K, x2 = 0.38",1.508 ± 0.002
same,refractive index,"[2]; 333.15 K, x2 = 0.457",1.497 ± 0.002
same,refractive index,"[2]; 333.15 K, x2 = 0.529",1.484 ± 0.002
same,refractive index,"[2]; 333.15 K, x2 = 0.596",1.474 ± 0.002
same,refractive index,"[2]; 333.15 K, x2 = 0.658",1.461 ± 0.002
same,refractive index,"[2]; 333.15 K, x2 = 0.716",1.447 ± 0.002
same,refractive index,"[2]; 333.15 K, x2 = 0.771",1.435 ± 0.002
same,refractive index,"[2]; 333.15 K, x2 = 0.822",1.423 ± 0.002
same,refractive index,"[2]; 333.15 K, x2 = 0.871",1.41 ± 0.002
same,refractive index,"[2]; 333.15 K, x2 = 0.916",1.398 ± 0.002
same,refractive index,"[2]; 333.15 K, x2 = 0.959",1.385 ± 0.002
